Measured values published in article PMC13210772, “Dual FLT3/MAPK14 Proteolysis-Targeting Chimera (PROTAC) Induces Potent Acute Myeloid Leukemia Cell Death” (Pharmaceuticals, 2026).

How the values were obtained:
MOLM-13 = test system: MOLM-13; set-up: method as in PMID 30427680, PMID 34959180, PMID 34694800, PMID 36332882, PMID 38655686; details: reported FLT3 PROTACs, Figure 1; cited from earlier work
MAPK14 = MAPK14 (Homo sapiens, UniProt Q16539); test: NanoBRET CELLinib128; details: 1 µM; 100% no effect, 0% complete tracer displacement
HCK = target: T1, HCK (Homo sapiens, UniProt P08631); test: NanoBRET CELLinib128; format: binding; details: 100% no effect, 0% complete tracer displacement, read-out: Tracer bound
T1 construct: Full-length kinase ORF (Promega, Madison, WI, USA) cloned in frame with a NanoLuc-vector was transfected into HEK293T cells; host or cells: HEK293T

EPHA4 = EPHA4 (Homo sapiens, UniProt P54764); test: NanoBRET CELLinib128; details: read-out: Tracer bound
GSK3B = GSK3B (Homo sapiens, UniProt P49841); test: NanoBRET CELLinib128; details: read-out: Tracer bound
TEC = TEC (Homo sapiens, UniProt P42680); test: NanoBRET CELLinib128; details: read-out: Tracer bound
EPHA2 = EPHA2 (Homo sapiens, UniProt P29317); test: NanoBRET CELLinib128; details: read-out: Tracer bound
ALK = ALK (Homo sapiens, UniProt Q9UM73); test: NanoBRET CELLinib128; details: read-out: Tracer bound
PTK6 = target: T2, PTK6 (Homo sapiens, UniProt Q13882); test: NanoBRET CELLinib128; format: binding; details: 100% no effect, 0% complete tracer displacement, read-out: Tracer bound
T2 construct: Full-length kinase ORF (Promega, Madison, WI, USA) cloned in frame with a NanoLuc-vector was transfected into HEK293T cells; host or cells: HEK293T

RIPK1 = RIPK1 (Homo sapiens, UniProt Q13546); test: NanoBRET CELLinib128; details: read-out: Tracer bound
CDK1-CCNB1 = CDK1-CCNB1 (Homo sapiens, UniProt P06493); test: NanoBRET CELLinib128; details: read-out: Tracer bound
EPHA8 = EPHA8 (Homo sapiens, UniProt P29322); test: NanoBRET CELLinib128; details: read-out: Tracer bound
PLK2 = PLK2 (Homo sapiens, UniProt Q9NYY3); test: NanoBRET CELLinib128; details: 1 µM; 100% no effect, 0% complete tracer displacement
MV4-11 cells = test: Apoptosis by flow cytometry (annexin-V/propidium iodine); format: cell-based, human; details: 24 h
Protocol: To further assess the biological relevance of these findings, we treated MV4-11 cells with the new PROTACs, included MA49 as control, and analyzed them for early (annexin-V positive) and late apoptosis (annexin-V and propidium iodine positive) by flow cytometry. Cells in late apoptosis are more severely damaged than cells in early apoptosis. […] After 72 h, all degraders evoked equal levels of apoptosis (Figure 4c). We additionally tested these degraders in MOLM-13 cells which carry FLT3-ITD and FLT3 from a patient with AML after initial myelodysplastic syndrome. These were hardly affected by the degraders after 24 h (Figure 4d).
Figure 4 Biological and biochemical characterization of the FLT3 PROTACs. (a) MV4-11 cells were incubated for 24 h with 50 nM of the indicated compounds. Immunoblotting was performed for the indicated proteins and their phosphorylation (p-) or cleavage (cl.; indicated by arrows); β-actin was used to ensure equal sample loading. (b) MV4-11 cells were treated with the indicated agents and analyzed for early and late apoptosis by flow cytometry. (c) Same as in (b) but treatment for 72 h. (d) MOLM-13 cells were treated with the indicated agents and analyzed for early and late apoptosis by flow cytometry. […] Immunoblots show the expression of the indicated proteins and their phosphorylation (p-); β-actin was used to ensure equal sample loading. […]

Chain of RIPK1 (Q13546 whole entry): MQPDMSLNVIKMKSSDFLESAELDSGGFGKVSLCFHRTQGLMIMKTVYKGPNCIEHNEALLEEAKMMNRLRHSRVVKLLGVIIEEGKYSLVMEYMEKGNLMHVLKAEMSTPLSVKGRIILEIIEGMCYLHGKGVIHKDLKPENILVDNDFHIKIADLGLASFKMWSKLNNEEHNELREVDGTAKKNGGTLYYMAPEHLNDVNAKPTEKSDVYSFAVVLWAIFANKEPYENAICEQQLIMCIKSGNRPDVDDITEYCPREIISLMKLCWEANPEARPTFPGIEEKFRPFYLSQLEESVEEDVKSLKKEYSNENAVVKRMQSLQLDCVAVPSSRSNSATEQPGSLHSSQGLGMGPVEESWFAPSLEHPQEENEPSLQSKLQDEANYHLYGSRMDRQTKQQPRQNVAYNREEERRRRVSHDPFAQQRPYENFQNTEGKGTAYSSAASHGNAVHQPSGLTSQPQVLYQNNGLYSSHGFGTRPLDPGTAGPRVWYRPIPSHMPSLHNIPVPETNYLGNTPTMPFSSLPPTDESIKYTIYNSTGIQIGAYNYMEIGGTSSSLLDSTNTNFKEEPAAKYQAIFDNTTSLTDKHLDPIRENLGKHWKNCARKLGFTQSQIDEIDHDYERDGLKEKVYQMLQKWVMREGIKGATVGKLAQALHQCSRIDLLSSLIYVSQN
Chain of EPHA2 (P29317 24-976): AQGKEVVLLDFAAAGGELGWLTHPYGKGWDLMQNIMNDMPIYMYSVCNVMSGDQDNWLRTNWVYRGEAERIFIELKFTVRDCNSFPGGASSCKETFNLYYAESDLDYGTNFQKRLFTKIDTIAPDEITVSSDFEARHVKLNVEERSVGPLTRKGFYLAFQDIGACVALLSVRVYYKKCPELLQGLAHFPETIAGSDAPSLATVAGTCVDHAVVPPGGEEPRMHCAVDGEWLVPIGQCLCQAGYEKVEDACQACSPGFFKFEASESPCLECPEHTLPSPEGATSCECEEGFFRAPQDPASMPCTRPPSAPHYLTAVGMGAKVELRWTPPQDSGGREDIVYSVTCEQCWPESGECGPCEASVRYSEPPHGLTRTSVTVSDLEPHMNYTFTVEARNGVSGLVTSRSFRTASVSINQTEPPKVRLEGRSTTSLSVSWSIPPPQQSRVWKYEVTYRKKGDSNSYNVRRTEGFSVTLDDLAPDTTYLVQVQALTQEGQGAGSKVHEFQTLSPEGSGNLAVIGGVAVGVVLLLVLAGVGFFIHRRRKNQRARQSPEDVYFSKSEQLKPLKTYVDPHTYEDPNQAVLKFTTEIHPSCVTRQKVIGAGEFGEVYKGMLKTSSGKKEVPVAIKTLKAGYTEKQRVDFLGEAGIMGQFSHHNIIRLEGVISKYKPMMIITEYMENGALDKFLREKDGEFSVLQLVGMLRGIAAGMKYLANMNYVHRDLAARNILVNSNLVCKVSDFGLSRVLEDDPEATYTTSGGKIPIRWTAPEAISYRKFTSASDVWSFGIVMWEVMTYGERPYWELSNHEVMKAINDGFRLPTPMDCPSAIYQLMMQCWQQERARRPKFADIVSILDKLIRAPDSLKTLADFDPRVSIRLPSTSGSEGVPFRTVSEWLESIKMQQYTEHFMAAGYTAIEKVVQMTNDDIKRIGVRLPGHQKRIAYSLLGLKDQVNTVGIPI
Chain of GSK3B (P49841 whole entry): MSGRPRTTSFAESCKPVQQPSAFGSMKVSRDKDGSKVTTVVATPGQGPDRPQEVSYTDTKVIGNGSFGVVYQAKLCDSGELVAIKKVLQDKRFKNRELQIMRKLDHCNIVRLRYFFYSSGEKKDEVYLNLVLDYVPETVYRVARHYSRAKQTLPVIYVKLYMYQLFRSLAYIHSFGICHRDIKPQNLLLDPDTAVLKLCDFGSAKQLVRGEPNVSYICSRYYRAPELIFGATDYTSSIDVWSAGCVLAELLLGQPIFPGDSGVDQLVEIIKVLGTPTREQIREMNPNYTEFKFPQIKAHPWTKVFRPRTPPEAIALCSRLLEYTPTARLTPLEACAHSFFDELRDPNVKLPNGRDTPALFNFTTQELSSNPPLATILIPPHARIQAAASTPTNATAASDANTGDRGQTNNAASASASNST
Chain of TEC (P42680 whole entry): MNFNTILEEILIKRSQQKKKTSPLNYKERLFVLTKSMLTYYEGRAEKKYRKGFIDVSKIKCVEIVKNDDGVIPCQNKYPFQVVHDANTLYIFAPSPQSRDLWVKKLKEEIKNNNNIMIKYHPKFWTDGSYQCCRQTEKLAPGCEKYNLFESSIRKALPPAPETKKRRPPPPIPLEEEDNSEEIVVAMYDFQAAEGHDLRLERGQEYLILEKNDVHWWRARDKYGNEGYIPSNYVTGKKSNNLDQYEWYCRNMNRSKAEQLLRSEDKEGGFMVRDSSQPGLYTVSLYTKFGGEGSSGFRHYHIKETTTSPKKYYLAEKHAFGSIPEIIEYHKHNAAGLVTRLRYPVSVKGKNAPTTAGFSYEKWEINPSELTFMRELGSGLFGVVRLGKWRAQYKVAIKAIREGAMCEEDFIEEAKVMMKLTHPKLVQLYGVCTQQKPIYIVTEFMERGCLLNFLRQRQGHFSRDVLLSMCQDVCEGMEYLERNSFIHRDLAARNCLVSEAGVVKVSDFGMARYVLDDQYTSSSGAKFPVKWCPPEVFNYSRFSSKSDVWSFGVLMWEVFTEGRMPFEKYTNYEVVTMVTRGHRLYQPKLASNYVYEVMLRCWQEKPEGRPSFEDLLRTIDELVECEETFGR
T2 sequence (Q13882 whole entry): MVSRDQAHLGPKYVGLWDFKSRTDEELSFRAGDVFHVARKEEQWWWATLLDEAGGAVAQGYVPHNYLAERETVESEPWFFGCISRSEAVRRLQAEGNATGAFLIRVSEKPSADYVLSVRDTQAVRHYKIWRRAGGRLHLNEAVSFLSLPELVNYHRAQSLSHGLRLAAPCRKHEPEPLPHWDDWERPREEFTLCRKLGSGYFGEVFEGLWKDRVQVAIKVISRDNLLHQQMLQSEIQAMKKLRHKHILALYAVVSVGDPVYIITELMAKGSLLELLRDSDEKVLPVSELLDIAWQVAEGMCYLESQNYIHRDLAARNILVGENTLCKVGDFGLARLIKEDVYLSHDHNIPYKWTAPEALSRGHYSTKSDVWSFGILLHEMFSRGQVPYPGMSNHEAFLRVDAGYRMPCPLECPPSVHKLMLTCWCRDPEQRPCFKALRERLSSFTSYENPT
Chain of ALK (Q9UM73 19-1620): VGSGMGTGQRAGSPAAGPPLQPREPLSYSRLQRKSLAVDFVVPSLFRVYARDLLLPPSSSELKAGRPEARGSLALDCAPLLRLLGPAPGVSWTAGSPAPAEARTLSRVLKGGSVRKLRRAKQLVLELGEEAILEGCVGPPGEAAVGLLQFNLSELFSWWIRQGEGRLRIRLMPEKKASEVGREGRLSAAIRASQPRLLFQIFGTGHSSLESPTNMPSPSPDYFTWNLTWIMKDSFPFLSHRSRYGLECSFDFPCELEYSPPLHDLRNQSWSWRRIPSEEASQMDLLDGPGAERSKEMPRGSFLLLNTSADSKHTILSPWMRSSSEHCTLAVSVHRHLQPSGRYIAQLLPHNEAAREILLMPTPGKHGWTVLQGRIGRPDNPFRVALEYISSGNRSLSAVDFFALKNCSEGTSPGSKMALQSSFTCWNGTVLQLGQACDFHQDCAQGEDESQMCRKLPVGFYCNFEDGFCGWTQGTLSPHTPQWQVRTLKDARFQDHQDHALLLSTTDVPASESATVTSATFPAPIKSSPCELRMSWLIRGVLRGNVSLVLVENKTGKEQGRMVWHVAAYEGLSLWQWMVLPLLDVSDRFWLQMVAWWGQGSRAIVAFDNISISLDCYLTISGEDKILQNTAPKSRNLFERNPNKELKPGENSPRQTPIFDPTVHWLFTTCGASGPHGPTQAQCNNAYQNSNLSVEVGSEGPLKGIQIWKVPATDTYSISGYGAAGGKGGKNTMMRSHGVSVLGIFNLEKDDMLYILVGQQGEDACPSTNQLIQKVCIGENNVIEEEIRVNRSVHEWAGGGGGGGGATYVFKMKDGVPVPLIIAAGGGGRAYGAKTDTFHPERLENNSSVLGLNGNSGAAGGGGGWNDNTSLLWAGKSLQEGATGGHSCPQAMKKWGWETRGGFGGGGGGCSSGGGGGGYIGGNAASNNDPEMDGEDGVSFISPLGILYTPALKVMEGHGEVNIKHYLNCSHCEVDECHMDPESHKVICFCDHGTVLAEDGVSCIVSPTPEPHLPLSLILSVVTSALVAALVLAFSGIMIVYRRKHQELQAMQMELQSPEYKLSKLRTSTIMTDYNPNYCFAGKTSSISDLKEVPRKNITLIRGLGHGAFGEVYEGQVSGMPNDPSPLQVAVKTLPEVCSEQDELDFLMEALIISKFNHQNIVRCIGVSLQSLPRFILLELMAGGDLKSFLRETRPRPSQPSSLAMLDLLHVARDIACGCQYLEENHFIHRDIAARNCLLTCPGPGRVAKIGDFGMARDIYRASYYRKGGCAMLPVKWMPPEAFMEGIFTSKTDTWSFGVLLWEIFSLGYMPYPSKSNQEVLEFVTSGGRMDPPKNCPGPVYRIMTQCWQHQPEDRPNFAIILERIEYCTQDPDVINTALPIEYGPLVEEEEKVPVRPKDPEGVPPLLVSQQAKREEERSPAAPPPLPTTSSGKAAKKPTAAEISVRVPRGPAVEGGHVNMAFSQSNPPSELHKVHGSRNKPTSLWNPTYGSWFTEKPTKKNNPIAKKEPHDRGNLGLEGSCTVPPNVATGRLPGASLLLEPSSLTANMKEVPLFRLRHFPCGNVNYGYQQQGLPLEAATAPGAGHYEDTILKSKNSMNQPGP

Tracer bound (MAPK14) [%] | remaining activity at 1 µM (HCK) [%] | remaining activity at 1 µM (EPHA4) [%] | remaining activity at 1 µM (GSK3B) [%] | remaining activity at 1 µM (TEC) [%] | remaining activity at 1 µM (EPHA2) [%] | remaining activity at 1 µM (ALK) [%] | remaining activity at 1 µM (PTK6) [%] | remaining activity at 1 µM (RIPK1) [%] | remaining activity at 1 µM (CDK1-CCNB1) [%] | remaining activity at 1 µM (EPHA8) [%] | Tracer bound (PLK2) [%] | Structure (SMILES) | IC50 (MOLM-13) [nM] | induction of late apoptosis (MV4-11 cells)
 |  |  |  |  |  |  |  |  |  |  |  | Cc1ncsc1-c1ccc([C@H](C)NC(=O)[C@@H]2C[C@@H](O)CN2C(=O)[C@@H](NC(=O)CCOCCOCCOCCNC(=O)c2cc(Oc3ccc(NC(=O)Nc4cc(C(C)(C)C)on4)cc3)ccn2)C(C)(C)C)cc1 [MA49, reference compound] | 4.8 ± 3.7 | 
25.9 | 120 | 33.7 | 120 | 107 | 10.6 | 109 | 67.6 | 93.3 | 98 | 38.9 | 98.1 | CNC(=O)c1cc(Oc2ccc(NC(=O)Nc3cc(C(C)(C)C)on3)cc2)ccn1 [MA68, reference compound] |  | 
 |  |  |  |  |  |  |  |  |  |  |  | Cc1ncsc1-c1ccc([C@H](C)NC(=O)[C@@H]2C[C@@H](O)CN2C(=O)[C@@H](NC(=O)[C@H]2CC[C@H](C(=O)N3CCC(CCNC(=O)c4cc(Oc5ccc(NC(=O)Nc6cc(C(C)(C)C)on6)cc5)ccn4)CC3)CC2)C(C)(C)C)cc1 [MA190, 4-(4-(3-(5-(tert-Butyl)isoxazol-3-yl)ureido)phenoxy)-N-(2-(1-(trans-4-(((S)-1-((2S,4R)-4-hydroxy-2-(((S)-1-(4-(4-methylthiazol-5-yl)phenyl)ethyl)carbamoyl)pyrrolidin-1-yl)-3,3-dimethyl-1-oxobutan-2-yl)carbamoyl)cyclohexanecarbonyl)piperidin-4-yl)ethyl)picolinamide] |  | most effective in inducing late apoptosis
70.3 | 120 | 118 | 120 | 113 | 104 | 105 | 118 | 104 | 81.9 | 120 | 107.6 | Cc1ncsc1-c1ccc([C@H](C)NC(=O)[C@@H]2C[C@@H](O)CN2C(=O)[C@@H](NC(=O)[C@H]2CC[C@H](C(=O)N3CCN(CCNC(=O)c4cc(Oc5ccc(NC(=O)Nc6cc(C(C)(C)C)on6)cc5)ccn4)CC3)CC2)C(C)(C)C)cc1 [MA191, 4-(4-(3-(5-(tert-Butyl)isoxazol-3-yl)ureido)phenoxy)-N-(2-(4-(trans-4-(((S)-1-((2S,4R)-4-hydroxy-2-(((S)-1-(4-(4-methylthiazol-5-yl)phenyl)ethyl)carbamoyl)pyrrolidin-1-yl)-3,3-dimethyl-1-oxobutan-2-yl)carbamoyl)cyclohexanecarbonyl)piperazin-1-yl)ethyl)picolinamide] |  | most effective in inducing late apoptosis
